According to patent US4317768A, “Dihydropyridine derivatives as stabilizers for vinyl chloride polymers” (priority 1977, dated 1982):
Each block holds one compound with its values, some of them ahead of it.

Legend:
[1] = Static thermostability (GARDNER method), rigid PVC sheets, 210° C., 0.3 part stabilizer
Procedure: This study was carried out according to the GARDNER method, described in British Pat. No. 1,489,685.
The reference substance was 2-phenyl-indole, a well-known and widely used stabilizer.
The stabilizer (dihydropyridine or 2-phenyl-indole) and the other usual ingredients were mixed with powdered vinyl resins and the mixtures were calendered at a temperature of 160° C. to give rigid sheets.
The sheets were then heated in a thermostated oven (185° C. or 210° C.) for different intervals of time until incipient carbonization.
The coloration of the samples was compared to a standard scale of coloration, known as the GARDNER scale and was expressed in terms of the reference figures of the GARDNER scale.
This study was carried out with the following resin:
Polyvinyl chloride resin
SL 2016 is a solution of zinc-2-ethyl-hexanoate in a mixture of hydrocarbons boiling between 158° C. and 184° C.
The first trial was carried out at 210° C. with a resin containing 0.3 part by weight of stabilizer, the sheets being removed from the oven every three minutes over a period of 21 minutes.

[2] = Comparison with stabilizer G1, rigid co-polymer, 0.5 part, 185° C.
Text: (b) Comparison with stabilizer G1
Stabilizer G1 is a mixture of 1,4-butanediol-β-aminocrotonate and of β-aminocrotonate of alcohols containing from 16 to 18 carbon atoms.

[3] = Photostabilizing power, sheets exposed to the sun, co-polymer (a)
Procedure: (§1) The sheets were exposed to the sun and their colorations were also determined according to the GARDNER method.

[4] = Polarographic study of the oxidation potential; assay type: physicochemical; details: acetonitrile, 0.1 M lithium perchlorate, vitrous carbon electrode, calomel reference
Text: By a polarographic study of their oxidation potential, compared to well-known antioxidants such as 2,6-diterbutyl-4-methyl-phenol, 2-terbutyl-4-methoxy-phenol, 4-methoxy-phenol and hydroquinone.
Reference electrode: Calomel electrode containing a saturated solution of anhydrous lithium perchlorate as bridge liquid.
Working electrode: Vitrous carbon rotating electrode (2,500 r.p.m.)
Counter-electrode: Platinum electrode
Acetonitrile containing less than 0.1% of water and presenting no polarographic waves between -2.5 V and +2.5 V.
Anhydrous lithium perchlorate containing less than 1% of water.
A 0.1 M solution of lithium perchlorate in acetonitrile, treated and preserved on a 4 A molecular sieve.
Amplitude of exploration: 0 to 2 V
Speed of exploration: 10 mV/second
Sensitivity: 1.25 μA to 50 μA
Mean concentration: about 0.3×10^-3 mol/liter
Between each measurement, the vitrous carbon electrode and the platinum electrode were carefully cleaned with Joseph paper.

[5] = Photostabilizing power, PVC plates exposed to the sun, GARDNER scale
Procedure: (§2) The photostabilizing power of the compounds of the invention was studied by exposing to the sun polyvinyl chloride plates which had been stabilized either by a dihydropyridine of the invention or by 2-phenyl-indole, or again by 2-(3'-methoxy-4'-hydroxy)-indole. This last product is an extremely valuable thermostabilizer for thermoplastic resins and is described in British Pat. No. 1,489,685.
(§3) The resin given hereunder was prepared by mixing on cylinders at 160° C.:
(§4) The plates of stabilized polyvinyl chloride, together with a plate which had not been stabilized, were stood in the sun under the same conditions and at the same time. Their colour was measured after 6 hours and 12 hours of exposure.
(§5) The coloration of the plates was determined according to two methods:
On the plates themselves, following the GARDNER scale, as in the section on thermostability,
The sign + means that the coloration lies between the lower unit and the upper half-unit. Thus, 3+ means that the coloration lies between 3 and 3.5. Similarly, the sign - means that the coloration lies between the lower half-unit and the upper unit.

[6] = Photostabilizing power, tetrahydrofuran solution of plates exposed to the sun, French Pharmacopeia
Procedure: as §2, §3, §4, §5
On a solution of these plates in tetrahydrofuran, the coloration of th solution being measured according to the French Pharmacopeia (IXth edition, II-338).

[7] = Comparison with 1,4-butanediol-β-aminocrotonate and methyl-β-aminocrotonate, rigid co-polymer, 185° C.; details: 0.5 part
Procedure: (a) Comparison with 1,4-butanediol-β-aminocrotonate and with methyl-β-aminocrotonate.
The following rigid co-polymer was prepared:
(§6) The sheets were heated in a ventilated oven at 185° C. and the following results were obtained: […]

[8] = Static thermostability (GARDNER), rigid co-polymer, 185° C.; details: for coloration, GARDNER scale: 0.1 part
Procedure: (§7) The study of the static thermostability of vinyl co-polymers was carried out according to the GARDNER method described above and, also in a more detailed manner in British Patent No. 1,489,685.
(a) Rigid co-polymer vinyl chloride-vinyl acetate
(§8) The following compound was prepared:
as §6

[9] = Thermostability, flexible co-polymer (b), Metrastat oven 160° C.; details: 0.2 part
Procedure: as §7
(b) Flexible co-polymer vinyl chloride-vinyl acetate.
as §8
The resin was allowed to gel for 5 minutes at 120° C. and the sheets were heated at 160° C. in a Metrastat oven.

[10] = Thermostability, flexible co-polymer (c), Metrastat oven 160° C.; details: 0.3 part
Procedure: as §7
(c) Flexible co-polymer vinyl chloride-vinyl acetate
as §8
The sheets were heated in a Metrastat oven at 160° C. and the following results were obtained: […]

[11] = Thermostability, rigid co-polymer (d), ventilated oven 210° C.; details: 0.3 part
Procedure: as §7
(d) Rigid co-polymer vinyl chloride-vinylidene chloride
as §8
The sheets were heated in a ventilated oven at 210° C.

[12] = Comparison with stabilizer G1, 0.3 part, 185° C.
[13] = Comparison with 2-phenyl-indole, vinyl chloride-vinylidene chloride co-polymer, 210° C.; details: 0.3 part
Procedure: A second test was made using the following compound:
The sheets were heated in a ventilated oven at 210° C. and the following results were obtained: […]

[14] = Photostabilizing power, sheets exposed to the sun, rigid co-polymer (b)
Procedure: as §1

SMILES: CCCCOCCOC(=O)C1=C(C)NC(C)=C(C(=O)OCCOCCCC)C1 [Compound 27]
coloration, GARDNER scale ([1]; 0 min): 1
coloration, GARDNER scale ([1]; 3 min): 1
coloration, GARDNER scale ([1]; 6 min): 1
coloration, GARDNER scale ([1]; 9 min): 2
coloration, GARDNER scale ([1]; 12 min): 5
coloration, GARDNER scale ([1]; 15 min): 14
coloration, GARDNER scale ([1]; 18 min): Burnt
coloration, GARDNER scale ([2]; 0 min): 1
coloration, GARDNER scale ([2]; 2 min): 1
coloration, GARDNER scale ([2]; 4 min): 4
coloration, GARDNER scale ([2]; 6 min): 7
coloration, GARDNER scale ([2]; 8 min): 12.5
coloration, GARDNER scale ([2]; 10 min): 17
Colour in GARDNER degrees ([3]; After 24 hours): 2 GARDNER degrees
Colour in GARDNER degrees ([3]; Time 0): 1 GARDNER degrees

Oxidation potential [4]: 0.89 ± 0.01 volts
SMILES: COc1ccc(O)cc1 [4-Methoxy-phenol]

SMILES: COc1ccc(O)c(C(C)(C)C)c1 [2-Terbutyl-4-methoxy-phenol]
Oxidation potential [4]: 0.81 ± 0.01 volts

SMILES: Oc1ccc(O)cc1 [Hydroquinone]
Oxidation potential [4]: 0.83 ± 0.01 volts

SMILES: COC(=O)C1=C(C)NC(C)=C(C(=O)OC)C1C [Compound 29, 2,4,6-Trimethyl-3,5-dicarbomethoxy-1,4-dihydropyridine]
coloration, GARDNER scale ([1]; 0 min): 1
coloration, GARDNER scale ([1]; 3 min): 2
coloration, GARDNER scale ([1]; 6 min): 3
coloration, GARDNER scale ([1]; 9 min): 6
coloration, GARDNER scale ([1]; 12 min): 7
coloration, GARDNER scale ([1]; 15 min): 10
coloration, GARDNER scale ([1]; 18 min): 10.5
coloration, GARDNER scale ([1]; 21 min): Burnt
Coloration of the plates GARDNER ([5]; exposure to sun 6h): 3
Coloration of the plates GARDNER ([5]; exposure to sun 12h): 5
Coloration of the plates FRENCH PHARMACOPEIA ([6]; exposure to sun 0): JV6
Coloration of the plates FRENCH PHARMACOPEIA ([6]; exposure to sun 6h): JV5
Coloration of the plates FRENCH PHARMACOPEIA ([6]; exposure to sun 12h): JV4

SMILES: COc1cc(-c2cc3ccccc3[nH]2)ccc1O [2-(3'-Methoxy-4'-hydroxy-phenyl)-indole, reference compound]
Coloration of the plates GARDNER ([5]; exposure to sun 0): 1
Coloration of the plates GARDNER ([5]; exposure to sun 6h): 4
Coloration of the plates GARDNER ([5]; exposure to sun 12h): 8
Coloration of the plates FRENCH PHARMACOPEIA ([6]; exposure to sun 6h): B4 to JB4
Coloration of the plates FRENCH PHARMACOPEIA ([6]; exposure to sun 12h): B3 to JB3

SMILES: COC(=O)/C=C(/C)N [Methyl-β-aminocrotonate, methyl-β-aminocrotonate, reference compound]
coloration, GARDNER scale ([7]; 0 min): 1
coloration, GARDNER scale ([7]; 2 min): 1
coloration, GARDNER scale ([7]; 4 min): 5
coloration, GARDNER scale ([7]; 6 min): 12
coloration, GARDNER scale ([7]; 8 min): 14
coloration, GARDNER scale ([7]; 10 min): 17
coloration, GARDNER scale ([7]; 12 min): 18

SMILES: CC(N)=CC(=O)OCCCCOC(=O)C=C(C)N [1,4-butanediol-β-aminocrotonate, reference compound]
coloration, GARDNER scale ([7]; 0 min): 1
coloration, GARDNER scale ([7]; 2 min): 1
coloration, GARDNER scale ([7]; 4 min): 4
coloration, GARDNER scale ([7]; 6 min): 10
coloration, GARDNER scale ([7]; 8 min): 13
coloration, GARDNER scale ([7]; 10 min): 15
coloration, GARDNER scale ([7]; 12 min): 18

SMILES: CC1=C(C(=O)OCCOc2ccccc2)CC(C(=O)OCCOc2ccccc2)=C(C)N1 [Compound 28]
coloration, GARDNER scale ([1]; 0 min): 1
coloration, GARDNER scale ([1]; 3 min): 1
coloration, GARDNER scale ([1]; 6 min): 1
coloration, GARDNER scale ([1]; 9 min): 3
coloration, GARDNER scale ([1]; 12 min): 4
coloration, GARDNER scale ([1]; 15 min): 5
coloration, GARDNER scale ([1]; 18 min): 10
coloration, GARDNER scale ([1]; 21 min): Burnt
thermostabilizing properties, in words [8]: clearly show the thermostabilizing properties
coloration, GARDNER scale ([8]; 0 min): 1
coloration, GARDNER scale ([8]; 2 min): 1
coloration, GARDNER scale ([8]; 4 min): 4
coloration, GARDNER scale ([8]; 6 min): 10
coloration, GARDNER scale ([8]; 8 min): 12
coloration, GARDNER scale ([8]; 10 min): 13
coloration, GARDNER scale ([8]; 12 min): 15
coloration, GARDNER scale ([8]; 14 min): 17
coloration, GARDNER scale ([9]; 0 min): 1
coloration, GARDNER scale ([9]; 30 min): 2
coloration, GARDNER scale ([9]; 40 min): 6
coloration, GARDNER scale ([9]; 50 min): 12
coloration, GARDNER scale ([9]; 60 min): 15
coloration, GARDNER scale ([10]; 0 min): 1
coloration, GARDNER scale ([10]; 10 min): 1
coloration, GARDNER scale ([10]; 20 min): 2
coloration, GARDNER scale ([10]; 30 min): 5
coloration, GARDNER scale ([10]; 40 min): 7
coloration, GARDNER scale ([10]; 50 min): 10
coloration, GARDNER scale ([10]; 60 min): 12
coloration, GARDNER scale ([11]; 0 min): 1.5
coloration, GARDNER scale ([11]; 3 min): 2
coloration, GARDNER scale ([11]; 6 min): 3
coloration, GARDNER scale ([11]; 9 min): 3.5
coloration, GARDNER scale ([11]; 12 min): 7
coloration, GARDNER scale ([11]; 15 min): 15
coloration, GARDNER scale ([7]; 0 min): 1
coloration, GARDNER scale ([7]; 2 min): 1
coloration, GARDNER scale ([7]; 4 min): 5
coloration, GARDNER scale ([7]; 6 min): 7
coloration, GARDNER scale ([7]; 8 min): 11
coloration, GARDNER scale ([7]; 10 min): 13
coloration, GARDNER scale ([7]; 12 min): 17
coloration, GARDNER scale ([12]; 0 min): 1
coloration, GARDNER scale ([12]; 2 min): 1
coloration, GARDNER scale ([12]; 4 min): 2
coloration, GARDNER scale ([12]; 6 min): 4
coloration, GARDNER scale ([12]; 8 min): 5
coloration, GARDNER scale ([12]; 10 min): 9
coloration, GARDNER scale ([12]; 12 min): 11
coloration, GARDNER scale ([12]; 14 min): 13
coloration, GARDNER scale ([13]; 0 min): 1.5
coloration, GARDNER scale ([13]; 3 min): 2
coloration, GARDNER scale ([13]; 6 min): 3
coloration, GARDNER scale ([13]; 9 min): 3.5
coloration, GARDNER scale ([13]; 12 min): 7
coloration, GARDNER scale ([13]; 15 min): 15
Colour in GARDNER degrees ([3]; After 24 hours): 1 GARDNER degrees
Colour in GARDNER degrees ([3]; Time 0): 1 GARDNER degrees
Colour in GARDNER degrees ([14]; After 24 hours): 3.5 GARDNER degrees
Colour in GARDNER degrees ([14]; Time 0): 1.5 GARDNER degrees
